Test results taken from paper PMC9234961 (Journal of Medicinal Chemistry, 2022).
Like-named read-outs stand apart in the source and are kept apart here.

Tests used:
kinases (468) [1] = molecular target: kinases (468) (Homo sapiens, UniProt O95382); details: ASK2 (MAP3K6); 1000 nM
kinases (468) [2] = molecular target: kinases (468) (Homo sapiens, UniProt P00519, T315I); details: 1000 nM
kinases (468) [3] = molecular target: kinases (468) (Homo sapiens, UniProt P06241); details: FYN; 1000 nM
kinases (468) [4] = molecular target: kinases (468) (Homo sapiens, UniProt P15056); details: BRAF; 1000 nM
kinases (468) [5] = molecular target: kinases (468) (Homo sapiens, UniProt P17948); details: FLT1; 1000 nM
kinases (468) [6] = molecular target: kinases (468) (Homo sapiens, UniProt P21127); details: CDC2L1 (CDK11B); 1000 nM
kinases (468) [7] = molecular target: kinases (468) (Homo sapiens, UniProt P22607); details: FGFR3; 1000 nM
kinases (468) [8] = molecular target: kinases (468) (Homo sapiens, UniProt P42679); details: CTK (MATK); 1000 nM
kinases (468) [9] = molecular target: kinases (468) (Homo sapiens, UniProt P43403); details: kinase ZAP70 (Entrez ZAP70); compound concentration 1000 nM
kinases (468) [10] = molecular target: kinases (468) (Homo sapiens, UniProt P45985); details: MEK4 (MAP2K4); 1000 nM
kinases (468) [11] = molecular target: kinases (468) (Homo sapiens, UniProt P48729); details: CSNK1A1; 1000 nM
kinases (468) [12] = molecular target: kinases (468) (Homo sapiens, UniProt P48736); details: PIK3CG; 1000 nM
kinases (468) [13] = molecular target: kinases (468) (Homo sapiens, UniProt P49761); details: CLK3; 1000 nM
kinases (468) [14] = molecular target: kinases (468) (Homo sapiens, UniProt P49841); details: GSK3B; 1000 nM
kinases (468) [15] = molecular target: kinases (468) (Homo sapiens, UniProt P50613); details: CDK7; 1000 nM
kinases (468) [16] = molecular target: kinases (468) (Homo sapiens, UniProt P53667); details: LIMK1; 1000 nM
kinases (468) [17] = molecular target: kinases (468) (Homo sapiens, UniProt Q02763); details: kinase TIE2 (Entrez TEK); compound concentration 1000 nM
Sequence of kinases (468) (Homo sapiens, UniProt Q02763) (Q02763 23-1124): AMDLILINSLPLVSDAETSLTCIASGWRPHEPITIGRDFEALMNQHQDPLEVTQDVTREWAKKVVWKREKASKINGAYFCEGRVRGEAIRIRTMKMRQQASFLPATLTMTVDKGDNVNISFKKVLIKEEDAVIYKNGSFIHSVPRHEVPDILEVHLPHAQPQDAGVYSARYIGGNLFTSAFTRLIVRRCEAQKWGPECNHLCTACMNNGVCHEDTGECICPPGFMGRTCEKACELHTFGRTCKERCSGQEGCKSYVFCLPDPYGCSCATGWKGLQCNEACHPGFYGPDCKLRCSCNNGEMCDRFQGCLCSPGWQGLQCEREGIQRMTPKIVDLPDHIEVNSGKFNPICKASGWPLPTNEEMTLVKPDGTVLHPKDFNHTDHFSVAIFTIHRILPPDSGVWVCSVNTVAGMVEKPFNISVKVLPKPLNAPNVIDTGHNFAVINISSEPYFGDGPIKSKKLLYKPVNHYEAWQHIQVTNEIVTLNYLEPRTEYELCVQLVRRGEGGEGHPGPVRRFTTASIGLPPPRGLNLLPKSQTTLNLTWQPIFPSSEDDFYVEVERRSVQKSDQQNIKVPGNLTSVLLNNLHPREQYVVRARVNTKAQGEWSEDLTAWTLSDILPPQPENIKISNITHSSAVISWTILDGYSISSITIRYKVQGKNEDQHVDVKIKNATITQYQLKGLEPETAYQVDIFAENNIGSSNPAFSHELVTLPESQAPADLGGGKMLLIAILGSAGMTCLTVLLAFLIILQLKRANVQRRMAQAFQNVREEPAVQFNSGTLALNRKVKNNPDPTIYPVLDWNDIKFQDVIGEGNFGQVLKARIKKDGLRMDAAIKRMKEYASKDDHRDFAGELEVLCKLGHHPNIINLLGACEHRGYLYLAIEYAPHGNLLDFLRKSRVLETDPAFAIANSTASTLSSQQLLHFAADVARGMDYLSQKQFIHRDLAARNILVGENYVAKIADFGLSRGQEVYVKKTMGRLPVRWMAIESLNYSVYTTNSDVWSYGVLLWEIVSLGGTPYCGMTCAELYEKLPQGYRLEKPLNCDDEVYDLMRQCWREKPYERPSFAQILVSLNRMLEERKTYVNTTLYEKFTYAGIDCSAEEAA

kinases (468) [18] = molecular target: kinases (468) (Homo sapiens, UniProt Q12851); details: MAP4K2; 1000 nM
Sequence of kinases (468) (Homo sapiens, UniProt Q12851) (Q12851 whole entry): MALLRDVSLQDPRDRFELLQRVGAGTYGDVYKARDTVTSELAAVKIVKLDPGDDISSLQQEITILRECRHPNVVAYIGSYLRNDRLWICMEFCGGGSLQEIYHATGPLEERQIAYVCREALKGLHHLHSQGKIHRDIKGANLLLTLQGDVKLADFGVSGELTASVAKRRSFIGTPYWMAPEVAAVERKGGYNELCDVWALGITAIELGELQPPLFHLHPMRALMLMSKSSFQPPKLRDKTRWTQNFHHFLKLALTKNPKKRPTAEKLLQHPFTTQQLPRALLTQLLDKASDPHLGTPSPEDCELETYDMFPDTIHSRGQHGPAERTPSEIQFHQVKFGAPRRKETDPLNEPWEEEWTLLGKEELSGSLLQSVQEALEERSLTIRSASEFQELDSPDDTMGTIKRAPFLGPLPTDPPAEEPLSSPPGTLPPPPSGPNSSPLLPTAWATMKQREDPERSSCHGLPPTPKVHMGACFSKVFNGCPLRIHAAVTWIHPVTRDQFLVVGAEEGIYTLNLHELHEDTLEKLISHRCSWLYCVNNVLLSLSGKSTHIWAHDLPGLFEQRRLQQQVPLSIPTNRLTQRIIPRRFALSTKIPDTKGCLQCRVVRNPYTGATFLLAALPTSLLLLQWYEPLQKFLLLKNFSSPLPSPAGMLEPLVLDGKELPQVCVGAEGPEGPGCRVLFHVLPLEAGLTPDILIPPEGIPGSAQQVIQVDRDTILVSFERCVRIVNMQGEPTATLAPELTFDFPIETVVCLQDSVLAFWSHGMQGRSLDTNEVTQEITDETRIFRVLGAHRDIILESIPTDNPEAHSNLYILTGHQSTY

kinases (468) [19] = molecular target: kinases (468) (Homo sapiens, UniProt Q13131); details: AMPK-alpha1 (PRKAA1); 1000 nM
Sequence of kinases (468) (Homo sapiens, UniProt Q13131) (Q13131 whole entry): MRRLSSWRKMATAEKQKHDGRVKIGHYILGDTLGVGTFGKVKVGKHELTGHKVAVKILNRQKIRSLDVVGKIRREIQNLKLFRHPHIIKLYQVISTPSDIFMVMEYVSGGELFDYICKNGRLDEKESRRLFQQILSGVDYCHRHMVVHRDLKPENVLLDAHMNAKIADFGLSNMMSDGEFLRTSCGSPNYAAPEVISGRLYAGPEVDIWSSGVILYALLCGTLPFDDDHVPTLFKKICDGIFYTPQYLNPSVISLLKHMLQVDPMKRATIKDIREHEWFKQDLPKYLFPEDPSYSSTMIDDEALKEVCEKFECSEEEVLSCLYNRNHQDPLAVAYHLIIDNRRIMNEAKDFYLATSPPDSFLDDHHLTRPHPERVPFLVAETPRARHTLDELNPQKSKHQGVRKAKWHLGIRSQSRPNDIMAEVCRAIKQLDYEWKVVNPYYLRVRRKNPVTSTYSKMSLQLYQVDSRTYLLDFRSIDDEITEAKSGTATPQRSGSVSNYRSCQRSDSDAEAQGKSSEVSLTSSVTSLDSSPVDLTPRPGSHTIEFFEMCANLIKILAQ

kinases (468) [20] = molecular target: kinases (468) (Homo sapiens, UniProt Q13470); details: kinase TNK1 (Entrez TNK1); compound concentration 1000 nM
kinases (468) [21] = molecular target: kinases (468) (Homo sapiens, UniProt Q15303); details: ERBB4; 1000 nM
kinases (468) [22] = molecular target: kinases (468) (Homo sapiens, UniProt Q16539); details: p38-alpha (MAPK14); 1000 nM
Sequence of kinases (468) (Homo sapiens, UniProt Q16539) (Q16539 whole entry): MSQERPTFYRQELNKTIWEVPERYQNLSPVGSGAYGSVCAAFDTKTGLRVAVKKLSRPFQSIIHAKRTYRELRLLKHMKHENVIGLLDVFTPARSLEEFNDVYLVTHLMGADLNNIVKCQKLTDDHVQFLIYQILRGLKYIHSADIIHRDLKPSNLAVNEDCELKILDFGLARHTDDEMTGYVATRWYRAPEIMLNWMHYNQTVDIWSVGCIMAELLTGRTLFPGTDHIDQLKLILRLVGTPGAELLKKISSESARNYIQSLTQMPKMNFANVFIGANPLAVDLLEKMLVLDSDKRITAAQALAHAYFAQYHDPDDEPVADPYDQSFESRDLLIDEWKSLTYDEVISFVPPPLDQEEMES

kinases (468) [23] = molecular target: kinases (468) (Homo sapiens, UniProt Q16620); details: kinase TRKB (Entrez NTRK2); compound concentration 1000 nM
kinases (468) [24] = molecular target: kinases (468) (Homo sapiens, UniProt Q16832); details: DDR2; 1000 nM
kinases (468) [25] = molecular target: kinases (468) (Homo sapiens, UniProt Q5S007, G2019S); details: LRRK2(G2019S); 1000 nM
kinases (468) [26] = molecular target: kinases (468) (Homo sapiens, UniProt Q8TDR2); details: kinase STK35 (Entrez STK35); compound concentration 1000 nM
kinases (468) [27] = molecular target: kinases (468) (Homo sapiens, UniProt Q96PN8); details: kinase TSSK3 (Entrez TSSK3); compound concentration 1000 nM
Sequence of kinases (468) (Homo sapiens, UniProt Q96PN8) (Q96PN8 whole entry): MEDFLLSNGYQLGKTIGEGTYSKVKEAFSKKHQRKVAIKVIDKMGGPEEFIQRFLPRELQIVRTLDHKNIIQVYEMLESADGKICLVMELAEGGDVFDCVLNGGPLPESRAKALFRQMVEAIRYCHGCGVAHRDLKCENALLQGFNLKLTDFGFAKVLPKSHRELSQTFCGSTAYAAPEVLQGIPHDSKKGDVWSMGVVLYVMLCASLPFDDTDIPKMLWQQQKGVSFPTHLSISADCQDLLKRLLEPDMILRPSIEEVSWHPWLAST

kinases (468) [28] = molecular target: kinases (468) (Homo sapiens, UniProt Q9C098); details: DCAMKL3 (DCLK3); 1000 nM
Sequence of kinases (468) (Homo sapiens, UniProt Q9C098) (Q9C098 whole entry): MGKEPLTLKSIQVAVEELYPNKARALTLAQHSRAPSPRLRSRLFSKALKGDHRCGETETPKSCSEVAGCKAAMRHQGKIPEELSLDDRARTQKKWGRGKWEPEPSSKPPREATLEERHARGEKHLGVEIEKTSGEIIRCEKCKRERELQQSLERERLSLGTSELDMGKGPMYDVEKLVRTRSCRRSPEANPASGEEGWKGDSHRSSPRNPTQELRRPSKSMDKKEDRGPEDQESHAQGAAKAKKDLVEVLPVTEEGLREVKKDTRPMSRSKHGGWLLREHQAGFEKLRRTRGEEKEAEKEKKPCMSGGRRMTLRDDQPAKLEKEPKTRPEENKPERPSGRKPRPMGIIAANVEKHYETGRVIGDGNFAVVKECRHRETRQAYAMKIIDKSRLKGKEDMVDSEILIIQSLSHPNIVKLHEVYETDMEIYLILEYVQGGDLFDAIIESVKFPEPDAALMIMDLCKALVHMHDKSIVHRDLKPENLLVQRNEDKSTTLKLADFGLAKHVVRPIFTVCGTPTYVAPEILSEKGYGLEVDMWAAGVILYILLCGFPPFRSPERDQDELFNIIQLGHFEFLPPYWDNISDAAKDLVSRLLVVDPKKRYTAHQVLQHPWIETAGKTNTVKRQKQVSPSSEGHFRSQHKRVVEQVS

kinases (468) [29] = molecular target: kinases (468) (Homo sapiens, UniProt Q9NRH2); details: kinase SNRK (Entrez SNRK); compound concentration 1000 nM
kinases (468) [30] = molecular target: kinases (468) (Homo sapiens, UniProt Q9UBF8); details: PIK4CB (PI4KB); 1000 nM
kinases (468) [31] = molecular target: kinases (468) (Homo sapiens, UniProt Q9UIK4); details: DAPK2; 1000 nM
kinases (468) [32] = molecular target: kinases (468) (Homo sapiens, UniProt Q9UPZ9); details: ICK; 1000 nM
Sequence of kinases (468) (Homo sapiens, UniProt Q9UPZ9) (Q9UPZ9 whole entry): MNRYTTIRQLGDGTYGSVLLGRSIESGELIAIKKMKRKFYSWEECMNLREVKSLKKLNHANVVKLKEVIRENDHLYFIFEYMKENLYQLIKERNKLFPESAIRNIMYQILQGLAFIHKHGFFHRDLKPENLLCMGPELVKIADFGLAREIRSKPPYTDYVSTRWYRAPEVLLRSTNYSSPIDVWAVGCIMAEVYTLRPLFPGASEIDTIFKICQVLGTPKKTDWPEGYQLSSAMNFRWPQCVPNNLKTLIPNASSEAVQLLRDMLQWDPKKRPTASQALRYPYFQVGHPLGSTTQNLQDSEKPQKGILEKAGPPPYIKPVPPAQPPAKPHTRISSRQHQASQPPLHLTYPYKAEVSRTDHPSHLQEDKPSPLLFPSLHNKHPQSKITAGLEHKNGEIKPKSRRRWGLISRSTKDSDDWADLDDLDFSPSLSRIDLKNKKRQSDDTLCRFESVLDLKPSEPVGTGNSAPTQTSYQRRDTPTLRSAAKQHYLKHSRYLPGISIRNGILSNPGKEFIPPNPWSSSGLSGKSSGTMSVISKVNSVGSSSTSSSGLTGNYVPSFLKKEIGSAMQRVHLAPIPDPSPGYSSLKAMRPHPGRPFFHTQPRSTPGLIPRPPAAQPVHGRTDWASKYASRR

kinases (468) [33] = molecular target: kinases (468) (Homo sapiens, UniProt Q9Y2U5); details: MAP3K2; 1000 nM
kinases (468) [34] = molecular target: kinases (468) (Homo sapiens, UniProt Q9Y616); details: IRAK3; 1000 nM
Sequence of kinases (468) (Homo sapiens, UniProt Q9Y616) (Q9Y616 whole entry): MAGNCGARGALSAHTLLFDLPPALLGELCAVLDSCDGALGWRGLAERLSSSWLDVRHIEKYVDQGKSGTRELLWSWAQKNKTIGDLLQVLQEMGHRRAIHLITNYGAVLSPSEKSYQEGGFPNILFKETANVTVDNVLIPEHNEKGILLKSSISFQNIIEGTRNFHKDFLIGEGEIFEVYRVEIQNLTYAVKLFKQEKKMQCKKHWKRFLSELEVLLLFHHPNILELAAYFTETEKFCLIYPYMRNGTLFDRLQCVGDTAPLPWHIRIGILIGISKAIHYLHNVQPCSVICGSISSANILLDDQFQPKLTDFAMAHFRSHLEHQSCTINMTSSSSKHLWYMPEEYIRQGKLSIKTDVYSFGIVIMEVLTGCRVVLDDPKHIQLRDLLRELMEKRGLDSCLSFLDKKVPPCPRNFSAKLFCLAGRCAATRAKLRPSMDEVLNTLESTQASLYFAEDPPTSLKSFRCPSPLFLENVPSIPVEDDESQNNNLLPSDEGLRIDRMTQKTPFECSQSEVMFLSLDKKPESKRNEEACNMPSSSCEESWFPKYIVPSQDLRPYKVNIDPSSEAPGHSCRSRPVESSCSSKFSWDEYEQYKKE

With C[C@H]1C[C@@H](O)CN(c2ncc(Cl)c(Nc3ccc4c(c3)c3c(c(=O)n4C)OCC(F)(F)[C@H](C4CC4)N3)n2)C1 [CCT373566_9A] the “Percent Control” value (kinases (468) [1]) was 98%, the “Percent Control” value (kinases (468) [2]; ABL1(T315I)-nonphosphorylated) was 89% and the “Percent Control” value (kinases (468) [2]; ABL1(T315I)-phosphorylated) was 88%. For the same compound, the “Percent Control” value (kinases (468) [3]) was 100%, the “Percent Control” value (kinases (468) [4]) was 92% and the “Percent Control” value (kinases (468) [5]) was 100%. For the same compound, the “Percent Control” value (kinases (468) [6]) was 100%, the “Percent Control” value (kinases (468) [7]) was 100% and the “Percent Control” value (kinases (468) [8]) was 100%. For the same compound, the “Percent Control” value (kinases (468) [9]) was 100%, the “Percent Control” value (kinases (468) [10]) was 90% and the “Percent Control” value (kinases (468) [11]) was 100%. For the same compound, the “Percent Control” value (kinases (468) [12]) was 98%, the “Percent Control” value (kinases (468) [13]) was 97% and the “Percent Control” value (kinases (468) [14]) was 94%. For the same compound, the “Percent Control” value (kinases (468) [15]) was 93%, the “Percent Control” value (kinases (468) [16]) was 57% and the “Percent Control” value (kinases (468) [17]) was 100%. The “Percent Control” value (kinases (468) [18]) was 99%, the “Percent Control” value (kinases (468) [19]) was 100% and the “Percent Control” value (kinases (468) [20]) was 92%. The “Percent Control” value (kinases (468) [21]) was 99%, the “Percent Control” value (kinases (468) [22]) was 96% and the “Percent Control” value (kinases (468) [23]) was 97%. The “Percent Control” value (kinases (468) [24]) was 100%, the “Percent Control” value (kinases (468) [25]) was 12% and the “Percent Control” value (kinases (468) [26]) was 99%. For the same compound, the “Percent Control” value (kinases (468) [27]) was 72%, the “Percent Control” value (kinases (468) [28]) was 100% and the “Percent Control” value (kinases (468) [29]) was 93%. For the same compound, the “Percent Control” value (kinases (468) [30]) was 94%, the “Percent Control” value (kinases (468) [31]) was 99% and the “Percent Control” value (kinases (468) [32]) was 100%. For the same compound, the “Percent Control” value (kinases (468) [33]) was 95% and the “Percent Control” value (kinases (468) [34]) was 100%.
